The compounds below were run against T1, AEK1 (Trypanosoma brucei, UniProt Q582V7) (assay: TR-FRET displacement of probe SCP-2). Conditions: read-out: % control^a.
T1 construct: gene Tb03.48O8.470
Type: binding

T1 sequence (Q582V7 entry or part of it): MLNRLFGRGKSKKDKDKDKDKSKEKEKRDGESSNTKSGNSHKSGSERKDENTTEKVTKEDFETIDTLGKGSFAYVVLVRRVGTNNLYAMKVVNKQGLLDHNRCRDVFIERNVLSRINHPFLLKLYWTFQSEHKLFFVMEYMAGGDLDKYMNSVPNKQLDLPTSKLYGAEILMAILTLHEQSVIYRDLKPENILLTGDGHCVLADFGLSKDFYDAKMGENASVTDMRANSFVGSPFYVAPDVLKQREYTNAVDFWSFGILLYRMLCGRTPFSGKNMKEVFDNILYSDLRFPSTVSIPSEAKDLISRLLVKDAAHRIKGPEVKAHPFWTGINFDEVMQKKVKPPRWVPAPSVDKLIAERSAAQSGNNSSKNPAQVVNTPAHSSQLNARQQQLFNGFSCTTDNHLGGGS

| Compound | probe binding remaining (% of control) at 1 µM |
| --- | --- |
| COc1cc2c(Oc3ccc4[nH]c(C)cc4c3F)ncnc2cc1OCCCN1CCCC1 [Cediranib (AZD2171)] | 36.6% |
| Cc1c[nH]c2nc(Nc3ccc(N4CCN(C)CC4)c(F)c3)nc(-c3cccc(CC#N)c3)c12 [SGI-7079] | 43.7% |
| CCS(=O)(=O)c1cccc(-c2cc(C(=O)NC3CCN(C)CC3)c(C)c3[nH]c4ncc(C)cc4c23)c1 [TAK-901] | 20.1% |
| Cn1cc(-c2[nH]c3cc(NC(=O)[C@H](N)C4CCCCC4)cc4c3c2C=NNC4=O)cn1 [PF-477736] | 23.1% |
| Cc1nc(Nc2[nH]nc3c2CN(C(=O)N[C@H](CN(C)C)c2ccccc2)C3(C)C)c2sccc2n1 [PF-3758309] | 38.2% |
